Counter-ions that a name gives are not always drawn. Like-named read-outs stand apart in the source and are kept apart here. Marks after values point to notes of the source that are not given here.
Columns and labels:
human MAO B = target: T1, human MAO B (Homo sapiens, UniProt P27338); assay: fluorometric Monoamine Oxidase assay; type: biochemical; settings: at 1 μM; read-out: hMAO B %Inh. (converted)
T1 construct: purchased Sigma Aldrich M7441
T1 sequence (P27338 1-520): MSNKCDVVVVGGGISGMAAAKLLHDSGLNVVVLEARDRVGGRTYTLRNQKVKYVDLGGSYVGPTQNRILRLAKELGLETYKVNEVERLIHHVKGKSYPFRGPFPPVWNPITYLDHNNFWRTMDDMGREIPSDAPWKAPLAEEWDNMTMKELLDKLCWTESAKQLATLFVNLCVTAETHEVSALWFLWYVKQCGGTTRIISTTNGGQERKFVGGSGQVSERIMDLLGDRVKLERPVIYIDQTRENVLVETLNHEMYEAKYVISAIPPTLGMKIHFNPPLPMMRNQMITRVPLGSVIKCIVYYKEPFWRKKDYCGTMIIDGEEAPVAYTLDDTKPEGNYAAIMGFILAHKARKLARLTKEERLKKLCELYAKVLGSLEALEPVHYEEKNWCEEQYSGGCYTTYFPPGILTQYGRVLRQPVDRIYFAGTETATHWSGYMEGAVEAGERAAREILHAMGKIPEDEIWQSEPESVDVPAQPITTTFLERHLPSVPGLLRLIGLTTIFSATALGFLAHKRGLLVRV
Procedure: Inhibition of human MAO B (hMAO B) was evaluated using a fluorometric Monoamine Oxidase assay as we described previously.
Inhibition of hMAO B was evaluated using fluorometric Monoamine Oxidase assay as described by Łażewska et al.. Recombinant MAO B was purchased from Sigma Aldrich (M7441). […] The assay was carried out in 96-well plate. Tested compounds dissolved in DMSO (1 μM) were added to wells that contained 98 µL of enzyme dilution (1 µg/well) in phosphate buffer (50 mM, pH 7.4). […] An enzymatic reaction started following addition of para-tyramine solution (200 μM). […] Each experiment was performed in duplicate.

AChE from electric eel [1] = target: T2, AChE from electric eel (Electrophorus electricus, UniProt O42275); settings: cited from earlier work; for eeAChE % Inh.: at 10 μM
T2 construct: AChE was obtained from electric eel and BuChE from equine serum; purchased Sigma Aldrich; host or cells: electric eel (natural source)

BuChE from equine serum [2] = target: T3, BuChE from equine serum (Equus caballus, UniProt P81908); settings: cited from earlier work
T3 construct: AChE was obtained from electric eel and BuChE from equine serum; purchased Sigma Aldrich; host or cells: equine serum (natural source)

AChE from electric eel [3] = target: T2, AChE from electric eel; assay: eeAChE inhibition, Ellman's method; type: biochemical; settings: for inhibition at 10 µM: read-out: eeAChE % Inh.; for IC50: AChE from electric eel, read-out: eeAChE IC50 Mean ± SEM
Procedure: The inhibitory activities of the tested compounds against cholinesterases were evaluated by Ellman’s method. AChE was obtained from electric eel and BuChE from equine serum. Donepezil and rivastigmine were used as reference compounds. […]. Inhibitory activities of the tested compounds against cholinesterases were measured using a spectrophotometric method modified for 96-well microplates as described recently.
[…]. First, all compounds were screened at the concentration of 10 μM. The changes in absorbance were measured at 412 nm, using a microplate reader (EnSpire Multimode; PerkinElmer, Waltham, MA, USA). Then, the percent of inhibition of tested enzymes for each compound was calculated. […] Each concentration was measured in triplicate. All calculations were made using nonlinear regression GraphPad Prism 5 (GraphPad Software, San Diego, CA, USA).

BuChE from equine serum [4] = target: T3, BuChE from equine serum; assay: eqBuChE inhibition, Ellman's method; type: biochemical; settings: BuChE from equine serum; read-out: eqBuChE IC50 Mean ± SEM
Procedure: The inhibitory activities of the tested compounds against cholinesterases were evaluated by Ellman’s method. AChE was obtained from electric eel and BuChE from equine serum. […] Inhibitory activities of the tested compounds against cholinesterases were measured using a spectrophotometric method modified for 96-well microplates as described recently.
First, all compounds were screened at the concentration of 10 μM. […] Then, the percent of inhibition of tested enzymes for each compound was calculated. […] Each concentration was measured in triplicate. All calculations were made using nonlinear regression GraphPad Prism 5 (GraphPad Software, San Diego, CA, USA).

[5] = target: T4, human histamine H3 receptor (Homo sapiens, UniProt Q9Y5N1); settings: cited from earlier work; for Ki: read-out: hH3R Ki Mean ± SD [CI 95%], [3H]Nα-methylhistamine, HEK293 cells stably expressing human H3R
T4 construct: expressed in transfected cells; host or cells: HEK293

[6] = target: T4, human histamine H3 receptor; assay: hH3R radioligand binding assay ([3H]Nα-methylhistamine)
Procedure: Affinity to human histamine H3 receptor stably expressed in HEK293 cells was evaluated in a radioligand binding assay with N^α-methylhistamine according to the previous procedure. […] The bound radioligand was separated from the free radioligand by filtration through GF/B filters (pretreated with 0.3% (m/v) polyethylenimine) using Inotech cell harvester (Dottikin, Switzerland). Unbound radioligand was removed by three washing steps with ice-cold water. The radioactivity was determined in a liquid scintillation counter (Perkin Elmer Trilux Betacounter, Germany). Scintillation data corrected for non-specific binding were analyzed using GraphPad Prism (V6.01, San Diego, CA, USA) software. Ki values were calculated from IC50 values (from at least three experiments, performed in duplicates) according to the Cheng–Prusoff equation [29].

[7] = test system: mouse model of scopolamine-induced memory impairments; assay: step-through Passive Avoidance Task; type: in vivo; settings: mice; for latency times, acquisition trial: i.p.
Procedure: This procedure was created for studying short-term memory as well as long-term memory. The paradigm requires the rodents to behave contrary to their innate preference for dark areas and for avoiding bright ones.
The experiments were carried out on adult male Albino Swiss mice (CD-1, 18–25 g). […] Experimental groups consisted of 6–12 animals, all the animals were used only once and they were killed by cervical dislocation immediately after the assay. Behavioral measures were scored by trained observers, which were blind to experimental conditions. Treatment of laboratory animals in the present study was in full accordance with the respective Polish regulations.
Control animals (negative control) were given an appropriate amount of vehicle (1% aqueous solution of Tween 80; i.p.) 30 min before the test.
The task was performed according to the method described previously. Briefly, the test was conducted in the apparatus with two compartments (LE872, Bioseb, France). The illuminated white compartment (20 cm × 21 cm × 20 cm, 1000 lx) was separated by an automated sliding gate with the smaller dark compartment (7.3 cm × 7.5 cm × 14 cm, 10 lx) equipped with an electric grid floor. For acquisition session, mice were first placed individually in the white compartment and after 30 s the gate to the smaller compartment was opened. Immediately after entering into the dark compartment, the gate was closed and the mouse was punished by an unavoidable electric foot shock (0.8 mA for 2 s). […] Next day (24 h later), the pretested animals were placed again into the bright compartment. […] The latency time to cross through the gate between the compartments was measured.

[8] = target: human butyrylcholineserase; settings: read-out: hBuChE IC50; cited from earlier work
[9] = read-out: eqBuChE IC50 Mean ± SEM
[10] = [3H]Nα-methylhistamine, HEK293 cells stably expressing human H3R, read-out: hH3R Ki Mean ± SD [CI 95%]

T4 sequence (Q9Y5N1 whole entry): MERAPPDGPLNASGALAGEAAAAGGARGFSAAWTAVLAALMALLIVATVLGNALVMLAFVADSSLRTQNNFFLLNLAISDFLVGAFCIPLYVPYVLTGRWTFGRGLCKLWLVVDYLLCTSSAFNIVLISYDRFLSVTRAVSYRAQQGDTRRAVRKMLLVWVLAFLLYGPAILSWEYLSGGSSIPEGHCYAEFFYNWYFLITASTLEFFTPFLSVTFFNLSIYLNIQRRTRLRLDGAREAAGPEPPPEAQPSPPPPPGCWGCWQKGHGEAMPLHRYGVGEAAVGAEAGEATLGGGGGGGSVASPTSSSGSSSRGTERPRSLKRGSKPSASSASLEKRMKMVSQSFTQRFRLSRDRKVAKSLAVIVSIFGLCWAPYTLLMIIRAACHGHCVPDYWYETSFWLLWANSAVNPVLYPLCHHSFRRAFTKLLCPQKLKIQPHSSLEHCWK
T3 sequence (P81908 whole entry): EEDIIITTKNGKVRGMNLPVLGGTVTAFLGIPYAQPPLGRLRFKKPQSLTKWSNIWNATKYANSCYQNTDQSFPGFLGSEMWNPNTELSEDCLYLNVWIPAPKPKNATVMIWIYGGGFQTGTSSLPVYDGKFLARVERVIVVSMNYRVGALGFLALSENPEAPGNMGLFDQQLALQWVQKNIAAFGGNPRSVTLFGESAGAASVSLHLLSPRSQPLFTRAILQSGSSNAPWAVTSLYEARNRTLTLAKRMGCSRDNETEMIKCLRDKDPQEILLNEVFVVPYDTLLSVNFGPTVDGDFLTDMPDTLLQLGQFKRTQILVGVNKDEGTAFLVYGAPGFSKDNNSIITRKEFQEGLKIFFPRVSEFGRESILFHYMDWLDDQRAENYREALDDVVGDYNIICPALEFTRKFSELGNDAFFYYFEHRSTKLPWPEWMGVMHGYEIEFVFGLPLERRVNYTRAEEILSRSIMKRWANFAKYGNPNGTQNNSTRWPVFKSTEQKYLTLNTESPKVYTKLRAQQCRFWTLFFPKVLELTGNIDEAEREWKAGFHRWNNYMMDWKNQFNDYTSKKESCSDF
T2 sequence (O42275 24-633): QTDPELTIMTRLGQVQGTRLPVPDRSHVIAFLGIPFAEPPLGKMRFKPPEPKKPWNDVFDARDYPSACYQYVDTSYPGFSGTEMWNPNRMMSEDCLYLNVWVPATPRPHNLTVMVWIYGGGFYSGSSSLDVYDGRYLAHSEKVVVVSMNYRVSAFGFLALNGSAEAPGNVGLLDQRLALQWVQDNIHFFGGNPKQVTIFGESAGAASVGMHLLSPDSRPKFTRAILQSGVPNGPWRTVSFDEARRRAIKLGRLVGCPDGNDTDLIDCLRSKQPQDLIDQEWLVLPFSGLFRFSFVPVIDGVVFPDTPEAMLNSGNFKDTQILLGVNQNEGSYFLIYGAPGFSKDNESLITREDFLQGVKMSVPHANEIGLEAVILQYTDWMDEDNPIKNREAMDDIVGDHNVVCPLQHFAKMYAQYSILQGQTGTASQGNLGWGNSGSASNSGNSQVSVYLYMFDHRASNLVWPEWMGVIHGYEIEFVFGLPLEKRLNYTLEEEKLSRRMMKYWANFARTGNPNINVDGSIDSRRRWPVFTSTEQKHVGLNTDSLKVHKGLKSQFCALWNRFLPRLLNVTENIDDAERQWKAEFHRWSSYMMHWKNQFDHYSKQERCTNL

## CC1CCN(CCCCCOc2ccc(-c3ccccc3)cc2)CC1 [Compound 3]
Human MAO B
  inhibition at 1 µM: 36%
AChE from electric eel [1]
  eeAChE % Inh.: (42% ± 1) ^i
BuChE from equine serum [2]; read-out: eqBuChE IC50
  IC50: 851 nM
BuChE from equine serum [2]; [9]
  IC50: 850 ± 20 nM

## CC1CCN(CCCCCCOc2ccc(-c3ccccc3)cc2)CC1 [Compound 4]
Human MAO B
  inhibition at 1 µM: 27%
AChE from electric eel [1]; AChE from electric eel, read-out: eeAChE IC50 Mean ± SEM
  IC50: 4460 ± 100 nM
AChE from electric eel [1]
  eeAChE % Inh.: more than 50%
BuChE from equine serum [2]; [9]
  IC50: 740 ± 20 nM

## c1ccc(-c2ccc(OCCCCCN3CCCCC3)cc2)cc1 [Compound 6]
AChE from electric eel [3]
  inhibition at 10 µM: 24%
BuChE from equine serum [4]
  IC50: 2160 ± 30 nM
Human MAO B
  inhibition at 1 µM: 50%

## c1ccc(-c2cccc(OCCCCCN3CCCCC3)c2)cc1 [Compound 7]
AChE from electric eel [3]
  inhibition at 10 µM: 24%
BuChE from equine serum [4]
  IC50: 1290 ± 20 nM
Human MAO B
  inhibition at 1 µM: 11%

## c1ccc(-c2ccc(OCCCCCCN3CCCCC3)cc2)cc1 [Compound 8]
AChE from electric eel [3]
  inhibition at 10 µM: 48%
BuChE from equine serum [4]
  IC50: 1630 ± 50 nM
Human MAO B
  inhibition at 1 µM: 36%

## c1ccc(-c2cccc(OCCCCCCN3CCCCC3)c2)cc1 [Compound 9]
AChE from electric eel [3]
  inhibition at 10 µM: 35%
BuChE from equine serum [4]
  IC50: 1780 ± 80 nM
Human MAO B
  inhibition at 1 µM: 16%
[5]
  Ki: 149 ± 108 nM

## c1ccc(-c2ccccc2OCCCCCCN2CCCCC2)cc1 [Compound 10, 1-(6-[1,1′-Biphenyl]-2-yloxy)hexyl)piperidine Hydrogen Oxalate]
[6]
  Ki: 221 nM
AChE from electric eel [3]
  inhibition at 10 µM: 8%
BuChE from equine serum [4]
  IC50: 1280 ± 20 nM
Human MAO B
  inhibition at 1 µM: 40%

## CC1CCCN(CCCCCOc2ccc(-c3ccccc3)cc2)C1 (centres unmarked) [Compound 11, 1-(5-([1,1′-Biphenyl]-4-yloxy)pentyl)-3-methylpiperidine Hydrogen Oxalate]
[6]; [10]
  Ki: 27.3 ± 15.1 nM
AChE from electric eel [3]
  inhibition at 10 µM: 45%
BuChE from equine serum [4]
  IC50: 910 ± 10 nM
Human MAO B
  inhibition at 1 µM: 28%

## CC1CCCN(CCCCCOc2cccc(-c3ccccc3)c2)C1 (centres unmarked) [Compound 12, 1-(5-([1,1′-Biphenyl]-3-yloxy)pentyl)-3-methylpiperidine Hydrogen Oxalate]
[6]
  Ki: 45 ± 13.4 nM
AChE from electric eel [3]
  inhibition at 10 µM: 27%
BuChE from equine serum [4]
  IC50: 680 ± 10 nM
Human MAO B
  inhibition at 1 µM: 5%

## CC1CCCN(CCCCCCOc2ccc(-c3ccccc3)cc2)C1 (centres unmarked) [Compound 13, 1-(6-([1,1′-Biphenyl]-4-yloxy)hexyl)-3-methylpiperidine Hydrogen Oxalate]
[6]; [10]
  Ki: 146 ± 65.3 nM
AChE from electric eel [3]
  IC50: 5020 ± 90 nM
  inhibition at 10 µM: > 50%
BuChE from equine serum [4]
  IC50: 950 nM
Human MAO B
  inhibition at 1 µM: 20%

## CC1CCCN(CCCCCCOc2cccc(-c3ccccc3)c2)C1 (centres unmarked) [Compound 14, 1-(6-([1,1′-Biphenyl]-3-yloxy)hexyl)-3-methylpiperidine Hydrogen Oxalate]
[6]
  Ki: 27 nM
AChE from electric eel [3]
  IC50: 4710 ± 130 nM
  inhibition at 10 µM: > 50%
BuChE from equine serum [4]
  IC50: 1520 ± 40 nM
Human MAO B
  inhibition at 1 µM: 35%

## CC1CCCN(CCCCCCOc2ccccc2-c2ccccc2)C1 (centres unmarked) [Compound 15, 1-(6-([1,1′-Biphenyl]-2-yloxy)hexyl)-3-methylpiperidine Hydrogen Oxalate]
[6]
  Ki: 23 nM
AChE from electric eel [3]
  inhibition at 10 µM: 24%
BuChE from equine serum [4]
  IC50: 2100 ± 60 nM
Human MAO B
  inhibition at 1 µM: 16%

## CC1CCN(CCCCCOc2cccc(-c3ccccc3)c2)CC1 [Compound 16]
AChE from electric eel [3]
  inhibition at 10 µM: 41%
BuChE from equine serum [4]
  IC50: 1460 ± 30 nM
Human MAO B
  inhibition at 1 µM: 7%

## CC1CCN(CCCCCCOc2cccc(-c3ccccc3)c2)CC1 [Compound 17]
AChE from electric eel [3]
  inhibition at 10 µM: 48%
BuChE from equine serum [4]
  IC50: 1490 ± 40 nM
Human MAO B
  inhibition at 1 µM: 5%
[5]
  Ki: 172 ± 73 nM

## CC1CCN(CCCCCCOc2ccccc2-c2ccccc2)CC1 [Compound 18, 1-(6-([1,1′-Biphenyl]-2-yloxy)hexyl)-4-methylpiperidine Hydrogen Oxalate]
[6]
  Ki: 561 nM
AChE from electric eel [3]
  inhibition at 10 µM: 20%
BuChE from equine serum [4]
  IC50: 1480 ± 40 nM
Human MAO B
  inhibition at 1 µM: 24%

## c1ccc(-c2cccc(OCCCCCN3CCCCCC3)c2)cc1 [Compound 20]
AChE from electric eel [3]
  inhibition at 10 µM: 26%
BuChE from equine serum [4]
  IC50: 470 ± 10 nM
Human MAO B
  inhibition at 1 µM: 14%

## c1ccc(-c2cccc(OCCCCCCN3CCCCCC3)c2)cc1 [Compound 21]
AChE from electric eel [3]
  IC50: 3860 ± 80 nM
  inhibition at 10 µM: > 50%
BuChE from equine serum [4]
  IC50: 870 nM
Human MAO B
  inhibition at 1 µM: 43%
[5]
  Ki: 19 ± 5.5 nM

## c1ccc(-c2ccccc2OCCCCCCN2CCCCCC2)cc1 [Compound 22, 1-(6-([1,1′-Biphenyl]-2-yloxy)hexyl)azepane Hydrogen Oxalate]
[6]
  Ki: 528 nM
AChE from electric eel [3]
  inhibition at 10 µM: 30%
BuChE from equine serum [4]
  IC50: 690 ± 50 nM
Human MAO B
  inhibition at 1 µM: 17%

## Clc1ccc(CCCOCCCN2CCCCC2)cc1 [Pitolisant, reference compound]
Human MAO B
  inhibition at 1 µM: 2%

## CCN(C)C(=O)Oc1cccc([C@H](C)N(C)C)c1 [Rivastigmine, rivastigmine, reference compound]
[7]; 1.0 mg/kg i.p. before scopolamine 1 mg/kg
  latency time, retention trial: 84.6 ± 20.1 s
[7]; 2.5 mg/kg i.p. before scopolamine 1 mg/kg
  latency time, retention trial: 98.7 ± 17.9 s
[7]
  latency times, acquisition trial: neither scopolamine, nor 19 nor rivastigmine significantly affected latency times
[8]
  IC50: 370 nM

## CN1[C@@H]2C[C@@H](OC(=O)[C@H](CO)c3ccccc3)C[C@H]1[C@@H]1O[C@@H]12 [Scopolamine, scopolamine, reference compound]
[7]
  latency times, acquisition trial: neither scopolamine, nor 19 nor rivastigmine significantly affected latency times

## CNCCc1cnc[nH]1 [[^3H]N^α-methylhistamine, reference compound]
[5]; hH3R stably expressed in HEK293 cells, read-out: KD of radioligand at hH3R
  Kd: 3.08 nM

Source: publication PMC8231170, “Biphenylalkoxyamine Derivatives–Histamine H3 Receptor Ligands with Butyrylcholinesterase Inhibitory Activity” (Molecules, 2021)
